From ChEMBL document CHEMBL4359937, “Design, synthesis and evaluation of 2-amino-imidazol-4-one derivatives as potent β-site amyloid precursor protein cleaving enzyme 1 (BACE-1) inhibitors” (Bioorg Med Chem Lett, 2019) come the findings set out here.

Each structure is given as a SMILES string.

Broadly, the logP is the decadic logarithm of the partition coefficient of the neutral form, usually between octanol and water. The low end stands for a more hydrophilic compound, the high end for a more lipophilic compound. One may read the IC50 as the point on the concentration scale where inhibition reaches its midpoint. Broadly, the inhibition is the drop in the measured response relative to a control, in per cent.

Data set [1] in a line: 1-Octanol/water distribution coefficient, logP of compound at 60 ug/ml shaken for 30 mins and measured by ultraviolet spectrophotometry analysis. It is filed as physicochemical.
For data set [2], the target named is T1, Beta-secretase 1 (Homo sapiens, UniProt P56817). The experiment in a line: Inhibition of human BACE1 (1 to 460 residues) expressed in baculovirus infected insect cells using Rh-EVNLDAEFK-quencher as substrate measured after 90 mins by FRET assay.
For data set [3], the target named is T1, Beta-secretase 1. The experiment in a line: Inhibition of human BACE1 (1 to 460 residues) expressed in baculovirus infected insect cells at 10 uM using Rh-EVNLDAEFK-quencher as substrate measured after 90 mins by FRET assay relative to control.

T1 sequence (P56817 whole entry, the tested form may be a part): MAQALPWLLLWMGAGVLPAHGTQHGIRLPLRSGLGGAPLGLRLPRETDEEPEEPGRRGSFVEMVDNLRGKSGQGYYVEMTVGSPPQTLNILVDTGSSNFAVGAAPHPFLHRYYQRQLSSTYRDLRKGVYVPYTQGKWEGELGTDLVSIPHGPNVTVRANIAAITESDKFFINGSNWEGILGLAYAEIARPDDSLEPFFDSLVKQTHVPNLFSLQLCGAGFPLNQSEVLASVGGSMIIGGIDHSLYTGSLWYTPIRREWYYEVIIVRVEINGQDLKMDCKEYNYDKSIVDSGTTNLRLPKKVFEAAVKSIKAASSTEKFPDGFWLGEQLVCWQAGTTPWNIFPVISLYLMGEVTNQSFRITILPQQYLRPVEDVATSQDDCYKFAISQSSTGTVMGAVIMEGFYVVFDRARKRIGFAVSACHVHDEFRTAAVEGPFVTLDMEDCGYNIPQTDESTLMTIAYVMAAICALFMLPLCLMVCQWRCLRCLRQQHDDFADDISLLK

`Cc1cccc(C)c1-c1cccc(C2(c3ccccc3)N=C(N)N(C)C2=O)c1` (stereo unspecified) had a logP at 0.5 h in data set [1] of 2.42. Also, at Beta-secretase 1 [2], the IC50 is more than 10000 nM. Moreover, the inhibition against Beta-secretase 1 [3] worked out at 34.1%.
In the same order, the values of `Cc1ccc(-c2cccc(C3(c4ccccc4)N=C(N)N(C)C3=O)c2)c(F)c1` (stereo unspecified) are 2.97, 141 nM and 97%.
Turning to `Cc1cc(C)cc(-c2cccc(C3(c4ccccc4)N=C(N)N(C)C3=O)c2)c1` (stereo unspecified), in data set [1], the logP at 0.5 h was 2.56. This compound yielded an IC50 against Beta-secretase 1 [2] of more than 10000 nM. In addition, the inhibition on Beta-secretase 1 [3] is 47.2%.
In the same order, the values of `CCc1ccc(-c2cccc(C3(c4ccccc4)N=C(N)N(C)C3=O)c2)cc1` (stereo unspecified) are 2.56, more than 10000 nM and 43.5%.
For `Cc1cc(C)c(-c2cccc(C3(c4ccccc4)N=C(N)N(C)C3=O)c2)c(C)c1` (stereo unspecified) the same measures were 2.55, more than 10000 nM and 45.7%.
For the compound `CN1C(=O)C(c2ccccc2)(c2cccc(-c3cccc(-c4ccccc4)c3)c2)N=C1N` (stereo unspecified), the logP at 0.5 h in data set [1] came out at 3.14. On Beta-secretase 1 [2], this compound returned an IC50 of more than 10000 nM. The inhibition against Beta-secretase 1 [3] is 20.5%.
In data set [1], `Cc1ccc(-c2cccc(C3(c4ccccc4)N=C(N)N(C)C3=O)c2)cc1C` (stereo unspecified) displayed a logP at 0.5 h of 2.49. Also, at Beta-secretase 1 [2], it took 425 nM to reach half-maximal inhibition (IC50). On Beta-secretase 1 [3], this compound returned an inhibition of 88.3%.
In the same order, the values of `COc1cccc(-c2cccc(C3(c4ccccc4)N=C(N)N(C)C3=O)c2)c1OC` (stereo unspecified) are 2.15, 1110 nM and 78.6%.
In the same order, the values of `COc1ccc(-c2cccc(C3(c4ccccc4)N=C(N)N(C)C3=O)c2)cc1OC` (stereo unspecified) are 2.49, 119 nM and 97.5%.
In the same order, the values of `COc1ccc(OC)c(-c2cccc(C3(c4ccccc4)N=C(N)N(C)C3=O)c2)c1` (stereo unspecified) are 2.54, 195 nM and 95%.
`CN1C(=O)C(c2ccccc2)(c2cccc(Br)c2)N=C1N` (stereo unspecified) returned a logP at 0.5 h in data set [1] of 2.04. At Beta-secretase 1 [2], the IC50 is more than 10000 nM. The compound further showed an inhibition against Beta-secretase 1 [3] of 33.1%.
In the same order, the values of `CN1C(=O)C(c2ccccc2)(c2cccc(-c3ccc(C(C)(C)C)cc3)c2)N=C1N` (stereo unspecified) are 3.1, more than 10000 nM and 34.2%.
For `COc1cccc(-c2cccc(C3(c4ccccc4)N=C(N)N(C)C3=O)c2)c1F` (stereo unspecified) the same measures were 2.72, 220 nM and 94.7%.
For `COc1cccc(OC)c1-c1cccc(C2(c3ccccc3)N=C(N)N(C)C2=O)c1` (stereo unspecified) the same measures were 2.02, 720 nM and 82.1%.
As for `Cc1ccc(F)cc1-c1cccc(C2(c3ccccc3)N=C(N)N(C)C2=O)c1` (stereo unspecified), in data set [1], the logP at 0.5 h was found to be 2.35. In addition, the IC50 at Beta-secretase 1 [2] was determined as 328 nM. At Beta-secretase 1 [3], the inhibition amounted to 92%.
Regarding `COc1ccc(-c2cccc(C3(c4ccccc4)N=C(N)N(C)C3=O)c2)c(OC)c1` (stereo unspecified), in data set [1], the logP at 0.5 h is 2.46. Besides, the IC50 against Beta-secretase 1 [2] was 1570 nM. On Beta-secretase 1 [3], this compound showed an inhibition of 75.5%.
In the same order, the values of `CN1C(=O)C(c2ccccc2)(c2cccc(-c3ccc(OCc4ccccc4)cc3)c2)N=C1N` (stereo unspecified) are 2.99, more than 10000 nM and 37.7%.
On to `Cc1ccc(-c2cccc(C3(c4ccccc4)N=C(N)N(C)C3=O)c2)c(C)c1` (stereo unspecified), for which the logP at 0.5 h in data set [1] worked out at 2.51. This compound also displayed an IC50 on Beta-secretase 1 [2] of more than 10000 nM. The compound further showed an inhibition at Beta-secretase 1 [3] of 40.9%.
Consider `CN1C(=O)C(c2ccccc2)(c2ccccc2)N=C1N`, for which, in data set [1], the logP at 0.5 h was found to be 1.9. In addition, at Beta-secretase 1 [3], the inhibition came out at 62.2%.
With `COc1cc(OC)cc(-c2cccc(C3(c4ccccc4)N=C(N)N(C)C3=O)c2)c1` (stereo unspecified), the logP at 0.5 h in data set [1] came out at 2.41. The compound also came in with an IC50 at Beta-secretase 1 [2] of 851 nM. Besides, the inhibition at Beta-secretase 1 [3] stood at 80.7%.
For `CN1C(=O)C(c2ccccc2)(c2cccc(-c3ccc(-c4ccccc4)cc3)c2)N=C1N` (stereo unspecified) the same measures were 3.18, more than 10000 nM and 43.9%.
On to `Cc1cc(F)ccc1-c1cccc(C2(c3ccccc3)N=C(N)N(C)C2=O)c1` (stereo unspecified), for which the logP at 0.5 h in data set [1] stood at 2.34. On Beta-secretase 1 [2], this compound yielded an IC50 of 456 nM. Moreover, the inhibition on Beta-secretase 1 [3] came out at 87.7%.
For `COc1ccc(F)cc1-c1cccc(C2(c3ccccc3)N=C(N)N(C)C2=O)c1` (stereo unspecified) the same measures were 2.86, 173 nM and 96%.
For `Cc1ccc(C)c(-c2cccc(C3(c4ccccc4)N=C(N)N(C)C3=O)c2)c1` (stereo unspecified) the same measures were 2.52, more than 10000 nM and 42.1%.
